For data set [1], the system named is A549 cells, MLE-12 cells and 293T cells.
Data set [2] deals with SARS-CoV-2. It counts as cell-based.
In data set [3] the test system is 293T cells. The following applies: same concentration, 24 h.
Experimental: 9.1 Plating: 293T cells in logarithmic growth phase are inoculated into a 96-well plate (100 μL/well), triplicate wells are made in each group, and the number of cells in each well is set at 5×10^3. The cells are put in a 5% CO2 incubator at 37° C. for 12 h.
The dosage concentrations are set to 100 μM, 50 μM, 25 μM, 12.5 μM, 6.25 μM and 3.125 μM, and the dosage volume is 2 μL. The control group is added with 2 μL DMSO. Then, they are put in a 5% CO2 incubator at 37° C. for culture.
9.3 After 24 hours, the cells are washed with PBS twice, and then added 100 μL of pre-mixed CCK8 solution (medium: CCK8 working solution=9:1) to each well to avoid introduction of bubbles in the operation. Culture is continued for 2 h in a 5 6% CO2 incubator at 37° C.
9.4 The absorbance D(λ) of each well at the wavelength of 450 nm is determined by the microplate reader. D(λ) values of the negative control group, the control group and the experimental group are analyzed to determine the cell activity. Cell viability reflects the cytotoxicity of the drug. The groups are as follows: • the experimental group (medium containing cells, CCK-8, the drug to be tested); • the control group (medium containing cells, CCK-8, without drug to be tested); and • the negative control group (medium without cells and the substance to be detected, with CCK-8).
For data set [4], the target named is T1, PLpro (Severe acute respiratory syndrome coronavirus 2, UniProt P0DTD1).
T1 construct: expressed in transfected cells; host or cells: 293T cells
Briefly: cell-based. Also on record: species or system SARS-CoV-2.

Starred links: 1 amine or outer side, 2 acyl side, 3 side chain; linkers in the order of their positions; H or OH if unused. Non-standard residues stand in square brackets, D forms with d. Residues, ends and D or L forms follow the SMILES beside them. ξ: configuration not given here. *: point of attachment. X1 = Cc1ccc(N[*:1])cc1C(=O)[*:2]; X2 = C[C@@H](N*)c1cccc2ccccc12; X3 = S=c1nc(N*)[nH]c2nc[nH]c12; ξR = N=C(N)NCCCC(N)C(=O)O; ξL = CC(C)CC(N)C(=O)O; ξS = NC(CO)C(=O)O

Here are results for three compounds from patent US12220461B2, “Polypeptide-coupled small molecule compound and antiviral application thereof” (Guangzhou Medical University, priority 2023, dated 2025).

`Cc1ccc(N)cc1C(=O)N[C@H](C)c1cccc2ccccc12` [GRL0617, reference compound]: in data set [1], the “cytotoxicity (CCK8 cell viability)” value is reported as “great cytotoxicity”.

Consider `CC(C)CC(NC(=O)C(CCCNC(=N)N)NC(=O)C(N)CO)C(=O)NC(CCCNC(=N)N)C(=O)NCC(=O)NCC(=O)Nc1nc(=S)c2[nH]cnc2[nH]1` (centres unmarked) [RG-6] (H-SRLRGG-X3; configuration not given here), for which, in data set [2], the “IC50 for inhibition of CPE induced by SARS-CoV-2” value was “lower than 6-TG”. Besides, the “cytotoxicity (CCK8 cell viability)” value in data set [3] is “less cytotoxicity than 6-TG”. The term IC50 denotes the point on the concentration scale where inhibition reaches its midpoint. Read a high IC50 as weaker potency. In the case of `Cc1ccc(NC(=O)CNC(=O)CNC(=O)C(CCCNC(=N)N)NC(=O)C(CC(C)C)NC(=O)C(CCCNC(=N)N)NC(=O)C(N)CO)cc1C(=O)N[C@H](C)c1cccc2ccccc12` (some centres unmarked) [RG-17] (H-[ξS][ξR][ξL][ξR]GG[X1]-X2), half-maximal inhibition in data set [4] (IC50) required 13.7 µM. The “cytotoxicity (CCK8 cell viability)” value in data set [1] is “does not affect the cell growth”.
